Measurements as given in patent US7192742B2, “FO-6979 substances and process for producing the same” (Gakkou Houjin Kitasato Gakeun, priority 2001, dated 2007).

Molecular target: T1, acyl-CoA: cholesterol acyltransferase derived from mouse
T1 construct: A membrane fraction derived from mouse liver microsome was used as an enzyme origin
Experiment: Acyl-CoA: cholesterol acyltransferase activity assay, mouse liver microsome membrane fraction, [1-14C] oleoyl-CoA
Format: biochemical
Details: 37° C. for 10 minutes, read-out: IC50, concentration which inhibits 50% of Acyl-CoA: cholesterol acyltransferase activity
Procedure: Inhibitory activities of FO 6979-M0 substance, -M1 substance, -M2 substance, -M3 substance and -M4 substance of the present invention (hereinafter totally designates as FO-6979 substances) on acyl-CoA: cholesterol acyltransferase derived from mouse are explained hereinbelow.
Acyl-CoA: cholesterol acyltransferase activity was assayed by the modified method of Uelmen, et al. (J. Biol. Chem. 270: 26192–26201, 1995). A membrane fraction derived from mouse liver microsome was used as an enzyme origin. A mouse liver was homogenized with buffer A [50 mM Tris-HCL (pH 7.8), 1 mM EDTA and 1 mM phenylmethanesulfonyl fluoride] using Potter homogenizer (Tokyo-RIKO Inc.).
The homogenate was centrifuged at 12,000×g, and the supernatant solution was ultracentrifuged at 100,000×g to obtain the microsome fraction which was prepared for a solution with protein concentration 5 mg/ml by adding the buffer A. Assay of acyl-CoA: cholesterol acyltransferase activity was performed by adding enzyme 200 μg protein, […] bovine serumu alubumin, [1-^14C] oleoyl-CoA (final concentration 170 μM, 0.09 μCi) and each FO-6979 substance into the buffer A to prepare total 100 μl solution and incubated at 37° C. for 10 minutes.
Subsequently, the reaction was terminated by adding 0.5 ml ethanol and added 1.5 ml hexane therein, then stirred well. Hexane layer 1 ml was dried up and was spotted on TLC plate (silica gel plate, thickness 0.5 mm, Merck Co., U.S.A.) which was developed with a solvent mixture, petroleum ether/diethyl ether/acetic acid (90:10:1, v/v). The generated [^14C] cholesteryl olate was quantitative measured using radio scanner (Ambis Co.). Results indicating concentration which inhibits 50% of Acyl-CoA: cholesterol acyltransferase activity of FO-6979 substances (-M0 substance˜-M4 substance) (IC50) are shown in the following table.

| Structure (SMILES) | IC50 |
| --- | --- |
| CCCCC(C)C1CC(=O)N[C@@H](C(C)C)C(=O)N[C@@H](C)C(=O)N[C@H](C(C)C)C(=O)O1 (stereo partly drawn) [FO-6979-M0 substance] | > 50 µM |
| CCCCC(C)C1CC(=O)N[C@@H](C(C)C)C(=O)N[C@@H](C)C(=O)N[C@H]([C@@H](C)CC)C(=O)O1 (stereo partly drawn) [FO-6979-M1 substance] | > 50 µM |
| CCCCC(C)C1CC(=O)N[C@@H](Cc2ccccc2)C(=O)N[C@@H](C)C(=O)N[C@H](C(C)C)C(=O)O1 (stereo partly drawn) [FO-6979-M3 substance] | 40 µM |

Test system: not listed separately
Experiment: Solubility in solvent
Format: physicochemical
Details: methanol, benzene, chloroform, ethyl acetate
From the text: The thus obtained FO-6979-M0 substance, -M1 substance, -M2 substance, -M3 substance and -M4 substance exist in the cultured microorganism cells and the culture filtrate. Isolation of FO-6979-M0 substance, -M1 substance, -M2 substance, -M3 substance and -M4 substance from the cultured mass can be performed by extracting the whole cultured mass with water miscible organic solvent such as aceton, distilling off the organic solvent from the extract in vacuo, and extracting the residue with water immiscible organic solvent such as ethyl acetate. In addition to the above extraction procedure, conventional methods used for isolation of fat-soluble substances such as adsorption chromatography, gel filtration chromatography, thin-layer chromatography, counter current chromatography and high performance liquid chromatography can be used optionally in combination or repeatedly to isolate and purify FO-6979-M0 substance, -M1 substance, -M2 substance, -M3 substance and -M4 substance. Physicochemical properties of FO-6979 substances of the present invention are explained hereinbelow.

| Structure (SMILES) | Solubility in solvent: methanol, benzene, chloroform and ethyl acetate |
| --- | --- |
| CCCCC(C)C1CC(=O)N[C@@H](C(C)C)C(=O)N[C@@H](C)C(=O)N[C@H](C(C)C)C(=O)O1 (stereo partly drawn) [FO-6979-M0 substance] | soluble |
| CCCCC(C)C1CC(=O)N[C@@H](C(C)C)C(=O)N[C@@H](C)C(=O)N[C@H]([C@@H](C)CC)C(=O)O1 (stereo partly drawn) [FO-6979-M1 substance] | soluble |
| CCCCC(C)C1CC(=O)N[C@@H](C(C)C)C(=O)N[C@@H](C)C(=O)N[C@H](CC(C)C)C(=O)O1 (stereo partly drawn) [FO-6979-M2 substance] | Soluble |
| CCCCC(C)C1CC(=O)N[C@@H](Cc2ccccc2)C(=O)N[C@@H](C)C(=O)N[C@H](C(C)C)C(=O)O1 (stereo partly drawn) [FO-6979-M3 substance] | soluble |
| CCCCCCC(C)C1CC(=O)N[C@@H](C(C)C)C(=O)N[C@@H](C)C(=O)N[C@H]([C@@H](C)CC)C(=O)O1 (stereo partly drawn) [FO-6979-M4 substance] | soluble |

Same assay, conditions: water, hexane

| Structure (SMILES) | Solubility in solvent: water and hexane |
| --- | --- |
| CCCCC(C)C1CC(=O)N[C@@H](C(C)C)C(=O)N[C@@H](C)C(=O)N[C@H](C(C)C)C(=O)O1 (stereo partly drawn) [FO-6979-M0 substance] | slight soluble |
| CCCCC(C)C1CC(=O)N[C@@H](C(C)C)C(=O)N[C@@H](C)C(=O)N[C@H]([C@@H](C)CC)C(=O)O1 (stereo partly drawn) [FO-6979-M1 substance] | slightly soluble |
| CCCCC(C)C1CC(=O)N[C@@H](C(C)C)C(=O)N[C@@H](C)C(=O)N[C@H](CC(C)C)C(=O)O1 (stereo partly drawn) [FO-6979-M2 substance] | slightly soluble |
| CCCCC(C)C1CC(=O)N[C@@H](Cc2ccccc2)C(=O)N[C@@H](C)C(=O)N[C@H](C(C)C)C(=O)O1 (stereo partly drawn) [FO-6979-M3 substance] | slightly soluble |
| CCCCCCC(C)C1CC(=O)N[C@@H](C(C)C)C(=O)N[C@@H](C)C(=O)N[C@H]([C@@H](C)CC)C(=O)O1 (stereo partly drawn) [FO-6979-M4 substance] | slightly soluble |

Test system: mouse peritoneal macrophage
Experiment: Toxicity test on growth of mouse peritoneal macrophage
Format: cell-based
Details: final concentration of 50 μM

| Structure (SMILES) | toxicity for growth of mouse peritoneal macrophage |
| --- | --- |
| CCCCC(C)C1CC(=O)N[C@@H](C(C)C)C(=O)N[C@@H](C)C(=O)N[C@H](C(C)C)C(=O)O1 (stereo partly drawn) [FO-6979-M0 substance] | No toxicity |
| CCCCC(C)C1CC(=O)N[C@@H](C(C)C)C(=O)N[C@@H](C)C(=O)N[C@H]([C@@H](C)CC)C(=O)O1 (stereo partly drawn) [FO-6979-M1 substance] | No toxicity |
| CCCCC(C)C1CC(=O)N[C@@H](C(C)C)C(=O)N[C@@H](C)C(=O)N[C@H](CC(C)C)C(=O)O1 (stereo partly drawn) [FO-6979-M2 substance] | No toxicity |
| CCCCC(C)C1CC(=O)N[C@@H](Cc2ccccc2)C(=O)N[C@@H](C)C(=O)N[C@H](C(C)C)C(=O)O1 (stereo partly drawn) [FO-6979-M3 substance] | No toxicity |
| CCCCCCC(C)C1CC(=O)N[C@@H](C(C)C)C(=O)N[C@@H](C)C(=O)N[C@H]([C@@H](C)CC)C(=O)O1 (stereo partly drawn) [FO-6979-M4 substance] | No toxicity |

Test system: cholesteryl ester formation in mouse peritoneal macrophage
Experiment: Cholesteryl ester formation in mouse peritoneal macrophage ([14C] oleic acid incorporation)
Format: cell-based
Details: 14 hours incubation, read-out: IC50, generation of [14C] cholesteryl olate
Procedure: Inhibitory action of FO-6979 substances of the present invention on cholesteryl ester formation in mouse peritoneal macrophage is explained.
Cholesteryl ester formation and lipid droplets formation in mouse peritoneal macrophage were performed according to a method of Namatame et al.(J. Biochem. 125: 319–327, 1999). Macrophage isolated from mouse peritoneal fluid was suspended at 2.0×10^6 cells/ml in Dulbecco's modified Eagle's medium containing 6.8% lipoprotein deficient serum (6.8% LPDS-DMEM) and aliquots (0.25 ml) were dispensed into a 48-well microplate (Corning Co.).
The plate was incubated in a humidified 5% CO2 atmosphere incubator at 37° C. for 2 hours, after which each plate was washed with Hank's solution to remove the unattached cells. The plate was incubated in 6.8% LPDS-DMEM for 1 hour, and each one of FO-6979 substances (2.5 μl 1 methanol solution), liposome [consisting of phosphatidylcholine/phosphatidylserine/dicetylphosphate/cholesterol=10:10:2:15 (nmol) in 10 μl of 0.3 M glucose] and [1-^14C] oleic acid (5 μl, 0.05 μCi, 1 nmol) were added therein, then incubated further 14 hours.
After the incubation, supernatant was removed and the intracellular neutral lipids were extracted twice with adding hexane 0.6 ml and isopropanol 0.4 ml. The mixture was concentrated, spotted on TLC plate (silica gel plate, Merck Co., thickness 0.5 mm) and developed and with a mixed solvent of hexane/diethyl ether/acetia acid(70:30:1, v/v). The separated [^14C] cholesteryl olate and [^14C] triacylglycerol were quantitatively assayed using radio scanner (Ambis Co.).

| Structure (SMILES) | IC50 |
| --- | --- |
| CCCCC(C)C1CC(=O)N[C@@H](C(C)C)C(=O)N[C@@H](C)C(=O)N[C@H](CC(C)C)C(=O)O1 (stereo partly drawn) [FO-6979-M2 substance] | > 25 µM |
| CCCCC(C)C1CC(=O)N[C@@H](Cc2ccccc2)C(=O)N[C@@H](C)C(=O)N[C@H](C(C)C)C(=O)O1 (stereo partly drawn) [FO-6979-M3 substance] | > 25 µM |

Same assay, conditions: Mus musculus, Peritoneal macrophage, 14 h, 14 hours incubation, read-out: IC50, generation of [14C] cholesteryl olate

| Structure (SMILES) | IC50 |
| --- | --- |
| CCCCC(C)C1CC(=O)N[C@@H](C(C)C)C(=O)N[C@@H](C)C(=O)N[C@H](C(C)C)C(=O)O1 (stereo partly drawn) [FO-6979-M0 substance] | > 25 µM |
| CCCCC(C)C1CC(=O)N[C@@H](C(C)C)C(=O)N[C@@H](C)C(=O)N[C@H]([C@@H](C)CC)C(=O)O1 (stereo partly drawn) [FO-6979-M1 substance] | > 45 µM |
| CCCCC(C)C1CC(=O)N[C@@H](Cc2ccccc2)C(=O)N[C@@H](C)C(=O)N[C@H](C(C)C)C(=O)O1 (stereo partly drawn) [FO-6979-M3 substance] | 21 µM |

Same assay, conditions: at 45 μM, read-out: inhibition of [14C] cholesteryl olate generation

| Structure (SMILES) | inhibition at 45 µM |
| --- | --- |
| CCCCC(C)C1CC(=O)N[C@@H](C(C)C)C(=O)N[C@@H](C)C(=O)N[C@H]([C@@H](C)CC)C(=O)O1 (stereo partly drawn) [FO-6979-M1 substance] | 20% |

Test system: lipid droplets formation in mouse peritoneal macrophage
Experiment: Lipid droplets formation in mouse peritoneal macrophage (oil red O / hematoxylin staining)
Format: cell-based
Details: 20 μM, 14 hours
Procedure: Inhibitory action of FO-6979 substances of the present invention on lipid droplets formation in mouse peritoneal macrophage is explained.
Lipid droplets formation in mouse peritoneal macrophage was performed according to the method of Namatame et al. (J. Biochem. 125:319–327, 1999). Macrophage isolated from mouse peritoneal fluid was suspended at 2.0×10^6 cells/ml in Dulbecco's modified Eagle's medium containing 6.8% lipoprotein deficient serum (6.8% LPDS-DMEM) and aliquots (0.25 ml) were dispensed into a slide chamber (Nunc Co.).
The chamber was incubated in a humidified 5% CO2 atmosphere incubator at 37° C. for 2 hours, after which the chamber was washed with Hank's solution to remove the unattached cells. The chamber was incubated in 6.8% LPDS-DMEM for 1 hour, and FO-6979-M3 substance (2.5 μl methanol solution) and liposome [consisting of phosphatidylcholine/phosphatidylserine/dicetylphosphate/cholesterol=10:10:2:15 (nmol) in 10 μl of 0.3 M glucose] were added therein, then incubated further 14 hours.
The lipid droplets and nuclei were double stained with oilred O and hematoxylin, and observed by optical microscope (Olympus OpticalCo., Japan).

| Structure (SMILES) | lipid droplets accumulated in cytoplasm, decreased to % as compared with no drug addition (control) |
| --- | --- |
| CCCCC(C)C1CC(=O)N[C@@H](Cc2ccccc2)C(=O)N[C@@H](C)C(=O)N[C@H](C(C)C)C(=O)O1 (stereo partly drawn) [FO-6979-M3 substance] | about 50% |

Test system: mice
Experiment: Toxicity test, intraperitoneal administration in mice
Format: in vivo
Details: administered intraperitoneally, 100 mg/kg
Procedure: Next, toxicity test of FO-6979 substances of the present invention was explained hereinbelow.
No toxicity was noted when FO-6979-M0 substance, -M1 substance, -M2 substance, -M3 substance and -M4 substance was administered intraperitoneally in mice with 100 mg/kg.

| Structure (SMILES) | toxicity in mice |
| --- | --- |
| CCCCC(C)C1CC(=O)N[C@@H](C(C)C)C(=O)N[C@@H](C)C(=O)N[C@H](C(C)C)C(=O)O1 (stereo partly drawn) [FO-6979-M0 substance] | No toxicity |
| CCCCC(C)C1CC(=O)N[C@@H](C(C)C)C(=O)N[C@@H](C)C(=O)N[C@H]([C@@H](C)CC)C(=O)O1 (stereo partly drawn) [FO-6979-M1 substance] | No toxicity |
| CCCCC(C)C1CC(=O)N[C@@H](C(C)C)C(=O)N[C@@H](C)C(=O)N[C@H](CC(C)C)C(=O)O1 (stereo partly drawn) [FO-6979-M2 substance] | No toxicity |
| CCCCC(C)C1CC(=O)N[C@@H](Cc2ccccc2)C(=O)N[C@@H](C)C(=O)N[C@H](C(C)C)C(=O)O1 (stereo partly drawn) [FO-6979-M3 substance] | No toxicity |
| CCCCCCC(C)C1CC(=O)N[C@@H](C(C)C)C(=O)N[C@@H](C)C(=O)N[C@H]([C@@H](C)CC)C(=O)O1 (stereo partly drawn) [FO-6979-M4 substance] | No toxicity |
